# Laboratory results reported in US10519152B2, “Compounds and their use in treating cancer” (AstraZeneca AB, priority 2017, dated 2019).
# Target: T1, recombinant human Estrogen Receptor alpha ligand binding domain, residues 307-554 (ER alpha-LBD (GST)) (Homo sapiens, UniProt P03372)
# T1 construct: made in house
# T1 sequence (P03372 307-554): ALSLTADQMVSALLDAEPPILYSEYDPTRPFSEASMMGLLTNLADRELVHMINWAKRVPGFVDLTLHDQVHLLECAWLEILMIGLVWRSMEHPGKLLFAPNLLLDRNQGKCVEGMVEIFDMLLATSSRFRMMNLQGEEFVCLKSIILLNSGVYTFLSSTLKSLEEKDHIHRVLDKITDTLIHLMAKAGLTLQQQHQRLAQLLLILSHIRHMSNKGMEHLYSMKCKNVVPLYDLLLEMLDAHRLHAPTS
# Assay: ERα binding assay (LanthaScreen TR-FRET competition)
# Settings: TR-FRET competition with Fluormone ES2 tracer, 4 hours at room temperature; single experiment or average of two or more
row,SMILES,IC50
1,"Cc1ncsc1-c1ccc(CNC(=O)[C@@H]2C[C@@H](O)CN2C(=O)[C@@H](NC(=O)CCCCCCCCOc2cc(F)c([C@@H]3c4[nH]c5ccccc5c4C[C@@H](C)N3CC(C)(C)F)c(F)c2)C(C)(C)C)cc1 [Example 15, (2S,4R)-1-((S)-2-(9-(3,5-Difluoro-4-((1R,3R)-2-(2-fluoro-2-methylpropyl)-3-methyl-2,3,4,9-tetrahydro-1H-pyrido[3,4-b]indol-1-yl)phenoxy)nonanamido)-3,3-dimethylbutanoyl)-4-hydroxy-N-(4-(4-methylthiazol-5-yl)benzyl)pyrrolidine-2-carboxamide]",1.5 nM
2,"Cc1ncsc1-c1ccc(CNC(=O)[C@@H]2C[C@@H](O)CN2C(=O)[C@@H](NC(=O)CNCCC(F)(F)CCOc2cc(F)c([C@@H]3c4[nH]c5ccccc5c4C[C@@H](C)N3CC(C)(C)F)c(F)c2)C(C)(C)C)cc1 [Example 131, (2S,4R)-1-((S)-2-(2-((5-(3,5-Difluoro-4-((1R,3R)-2-(2-fluoro-2-methylpropyl)-3-methyl-2,3,4,9-tetrahydro-1H-pyrido[3,4-b]indol-1-yl)phenoxy)-3,3-difluoropentyl)amino)acetamido)-3,3-dimethylbutanoyl)-4-hydroxy-N-(4-(4-methylthiazol-5-yl)benzyl)pyrrolidine-2-carboxamide]",1.6 nM
3,"Cc1ncsc1-c1ccc([C@H](C)NC(=O)[C@@H]2C[C@@H](O)CN2C(=O)[C@@H](NC(=O)COCCOCCCCOc2cc(F)c([C@@H]3c4[nH]c5ccccc5c4C[C@@H](C)N3CC(C)(C)F)c(F)c2)C(C)(C)C)cc1 [Example 153, (2S,4R)-1-((S)-2-(2-(2-(4-(3,5-Difluoro-4-((1R,3R)-2-(2-fluoro-2-methylpropyl)-3-methyl-2,3,4,9-tetrahydro-1H-pyrido[3,4-b]indol-1-yl)phenoxy)butoxy)ethoxy)acetamido)-3,3-dimethylbutanoyl)-4-hydroxy-N—((S)-1-(4-(4-methylthiazol-5-yl)phenyl)ethyl)pyrrolidine-2-carboxamide]",0.3 nM
4,"Cc1ncsc1-c1ccc(CNC(=O)[C@@H]2C[C@@H](O)CN2C(=O)[C@@H](NC(=O)COCCOCCCCCOc2cc(F)c([C@@H]3c4[nH]c5ccccc5c4C[C@@H](C)N3CC(F)F)c(F)c2)C(C)(C)C)cc1 [Example 167, (2S,4R)-1-((S)-2-(2-(2-((5-(4-((1R,3R)-2-(2,2-Difluoroethyl)-3-methyl-2,3,4,9-tetrahydro-1H-pyrido[3,4-b]indol-1-yl)-3,5-difluorophenoxy)pentyl)oxy)ethoxy)acetamido)-3,3-dimethylbutanoyl)-4-hydroxy-N-(4-(4-methylthiazol-5-yl)benzyl)pyrrolidine-2-carboxamide]",0.9 nM
5,"Cc1ncsc1-c1ccc(CNC(=O)[C@@H]2C[C@@H](O)CN2C(=O)[C@@H](NC(=O)COCCOCCCCCOc2cnc([C@@H]3c4[nH]c5ccccc5c4C[C@@H](C)N3CC(C)(F)F)c(F)c2)C(C)(C)C)cc1 [Example 164, (2S,4R)-1-((S)-2-(2-(2-((5-((6-((1S,3R)-2-(2,2-Difluoropropyl)-3-methyl-2,3,4,9-tetrahydro-1H-pyrido[3,4-b]indol-1-yl)-5-fluoropyridin-3-yl)oxy)pentyl)oxy)ethoxy)acetamido)-3,3-dimethylbutanoyl)-4-hydroxy-N-(4-(4-methylthiazol-5-yl)benzyl)pyrrolidine-2-carboxamide]",6.6 nM
6,"Cc1ncsc1-c1ccc([C@H](C)NC(=O)[C@@H]2C[C@@H](O)CN2C(=O)[C@@H](NC(=O)C(F)(F)OCCOCCCCOc2cc(F)c([C@@H]3c4[nH]c5ccccc5c4C[C@@H](C)N3CC(C)(C)F)c(F)c2)C(C)(C)C)cc1 [Example 122, (2S,4R)-1-((S)-2-(2-(2-(4-(3,5-Difluoro-4-((1R,3R)-2-(2-fluoro-2-methylpropyl)-3-methyl-2,3,4,9-tetrahydro-1H-pyrido[3,4-b]indol-1-yl)phenoxy)butoxy)ethoxy)-2,2-difluoroacetamido)-3,3-dimethylbutanoyl)-4-hydroxy-N—((S)-1-(4-(4-methylthiazol-5-yl)phenyl)ethyl)pyrrolidine-2-carboxamide]",1.5 nM
7,"CC(=O)O[C@@H]1C[C@@H](C(=O)NCc2ccc(-c3scnc3C)cc2)N(C(=O)[C@@H](NC(=O)COCCOCCOCCOc2cc(F)c([C@@H]3c4[nH]c5ccccc5c4C[C@@H](C)N3CC(C)(C)F)c(F)c2)C(C)(C)C)C1 [Example 34, (3R,5S)-1-((S)-2-(tert-Butyl)-14-(3,5-difluoro-4-((1R,3R)-2-(2-fluoro-2-methylpropyl)-3-methyl-2,3,4,9-tetrahydro-1H-pyrido[3,4-b]indol-1-yl)phenoxy)-4-oxo-6,9,12-trioxa-3-azatetradecanoyl)-5-((4-(4-methylthiazol-5-yl)benzyl)carbamoyl)pyrrolidin-3-yl Acetate]",0.9 nM
8,"Cc1ncsc1-c1ccc(CNC(=O)[C@@H]2C[C@@H](O)CN2C(=O)[C@@H](NC(=O)COCCc2ccc(COc3cc(F)c([C@@H]4c5[nH]c6ccccc6c5C[C@@H](C)N4CC(C)(C)F)c(F)c3)nc2)C(C)(C)C)cc1 [Example 158, (2S,4R)-1-((S)-2-(2-(2-(6-((3,5-Difluoro-4-((1R,3R)-2-(2-fluoro-2-methylpropyl)-3-methyl-2,3,4,9-tetrahydro-1H-pyrido[3,4-b]indol-1-yl)phenoxy)methyl)pyridin-3-yl)ethoxy)acetamido)-3,3-dimethylbutanoyl)-4-hydroxy-N-(4-(4-methylthiazol-5-yl)benzyl)pyrrolidine-2-carboxamide]",0.8 nM
9,"Cc1ncsc1-c1ccc(CNC(=O)[C@@H]2C[C@@H](O)CN2C(=O)[C@@H](NC(=O)COCCCOCCOc2ccc([C@@H]3c4[nH]c5ccccc5c4C[C@@H](C)N3CC(F)F)nc2)C(C)(C)C)cc1 [Example 26, (2S,4R)-1-((S)-2-(2-(3-(2-((6-((1S,3R)-2-(2,2-Difluoroethyl)-3-methyl-2,3,4,9-tetrahydro-1H-pyrido[3,4-b]indol-1-yl)pyridin-3-yl)oxy)ethoxy)propoxy)acetamido)-3,3-dimethylbutanoyl)-4-hydroxy-N-(4-(4-methylthiazol-5-yl)benzyl)pyrrolidine-2-carboxamide]",25 nM
10,"Cc1ncsc1-c1ccc(CNC(=O)[C@@H]2C[C@@H](O)CN2C(=O)[C@@H](NC(=O)CCCOCCCCCCOc2cc(F)c([C@@H]3c4[nH]c5ccccc5c4C[C@@H](C)N3CC(C)(C)F)c(F)c2)C(C)(C)C)cc1 [Example 112, (2S,4R)-1-((S)-2-(4-((6-(3,5-difluoro-4-((1R,3R)-2-(2-fluoro-2-methylpropyl)-3-methyl-2,3,4,9-tetrahydro-1H-pyrido[3,4-b]indol-1-yl)phenoxy)hexyl)oxy)butanamido)-3,3-dimethylbutanoyl)-4-hydroxy-N-(4-(4-methylthiazol-5-yl)benzyl)pyrrolidine-2-carboxamide]",0.5 nM
11,"Cc1ncsc1-c1ccc([C@@H](CN(C)C)NC(=O)[C@@H]2C[C@@H](O)CN2C(=O)[C@@H](NC(=O)COCCOCCOCCOc2cc(F)c([C@@H]3c4[nH]c5ccccc5c4C[C@@H](C)N3CC(C)(C)F)c(F)c2)C(C)(C)C)cc1 [Example 107, (2S,4R)-1-[(2S)-2-[[2-[2-[2-[2-[3,5-Difluoro-4-[(1R,3R)-2-(2-fluoro-2-methyl-propyl)-3-methyl-1,3,4,9-tetrahydropyrido[3,4-b]indol-1-yl]phenoxy]ethoxy]ethoxy]ethoxy]acetyl]amino]-3,3-dimethyl-butanoyl]-N-[(1S)-2-(dimethylamino)-1-[4-(4-methylthiazol-5-yl)phenyl]ethyl]-4-hydroxy-pyrrolidine-2-carboxamide]",4 nM
12,"Cc1ncsc1-c1ccc(CNC(=O)[C@@H]2C[C@@H](O)CN2C(=O)[C@@H](NC(=O)COCCc2ccc(COc3cc(F)c([C@@H]4c5[nH]c6ccccc6c5C[C@@H](C)N4CC(C)(C)F)c(F)c3)cc2)C(C)(C)C)cc1 [Example 53, (2S,4R)-1-((S)-2-(2-(4-((3,5-difluoro-4-((1R,3R)-2-(2-fluoro-2-methylpropyl)-3-methyl-2,3,4,9-tetrahydro-1H-pyrido[3,4-b]indol-1-yl)phenoxy)methyl)phenethoxy)acetamido)-3,3-dimethylbutanoyl)-4-hydroxy-N-(4-(4-methylthiazol-5-yl)benzyl)pyrrolidine-2-carboxamide]",1 nM
13,"Cc1ncsc1-c1ccc(CNC(=O)[C@@H]2C[C@@H](O)CN2C(=O)[C@@H](NC(=O)CCCc2ccc(COc3cc(F)c([C@@H]4c5[nH]c6ccccc6c5C[C@@H](C)N4CC(C)(C)F)c(F)c3)nc2)C(C)(C)C)cc1 [Example 141, (2S,4R)-1-((S)-2-(4-(6-((3,5-Difluoro-4-((1R,3R)-2-(2-fluoro-2-methylpropyl)-3-methyl-2,3,4,9-tetrahydro-1H-pyrido[3,4-b]indol-1-yl)phenoxy)methyl)pyridin-3-yl)butanamido)-3,3-dimethylbutanoyl)-4-hydroxy-N-(4-(4-methylthiazol-5-yl)benzyl)pyrrolidine-2-carboxamide]",1.2 nM
14,"Cc1ncsc1-c1ccc(CNC(=O)[C@@H]2C[C@@H](O)CN2C(=O)[C@@H](NC(=O)COCCCOCCCCOc2cc(F)c([C@@H]3c4[nH]c5ccccc5c4C[C@@H](C)N3CC(C)(C)F)c(F)c2)C(C)(C)C)cc1 [Example 129, (2S,4R)-1-((S)-2-(2-(3-(4-(3,5-Difluoro-4-((1R,3R)-2-(2-fluoro-2-methylpropyl)-3-methyl-2,3,4,9-tetrahydro-1H-pyrido[3,4-b]indol-1-yl)phenoxy)butoxy)propoxy)acetamido)-3,3-dimethylbutanoyl)-4-hydroxy-N-(4-(4-methylthiazol-5-yl)benzyl)pyrrolidine-2-carboxamide]",1 nM
